Experimental findings from patent publication US10981926B2 (Janssen Pharmaceutica NV, priority 2016, dated 2021) are described below.

For test [1], the target named is T1, wild-type Androgen Receptor (AR-wt) (Homo sapiens (Human), UniProt P10275). In words: LNCaP-AR-wt ANT reporter assay (antagonist mode). It counts as cell-based. To be noted: for IC50: read-out: LNCaP-AR-wt ANT pIC50 (converted); for Emax: read-out: LNCaP-AR-wt ANT MAX % Inh.
Test [2] deals with T1, wild-type Androgen Receptor (AR-wt). Nature of the test: LNCaP-AR-wt AG reporter assay (agonist mode). It counts as cell-based. To be noted: for EC50: pEC50 = −Log10(EC50 in Molar), read-out: LNCaP-AR-wt AG pEC50 (converted); for Emax: read-out: LNCaP-AR-wt AG MAX % Stim.
Test [3] has as its target T2, F876L mutant Androgen Receptor (AR-F876L) (Homo sapiens (Human), UniProt P10275, F877L). In words: LNCaP-AR-F876L ANT reporter assay (antagonist mode). To be noted: for IC50: read-out: LNCaP-AR-F876L ANT pIC50 (converted); for Emax: read-out: LNCaP-AR-F876L ANT MAX % Inh. It counts as cell-based.
Test [4] has as its target T2, F876L mutant Androgen Receptor (AR-F876L). Nature of the test: LNCaP-AR-F876L AG reporter assay (agonist mode). To be noted: for EC50: pEC50 = −Log10(EC50 in Molar), read-out: LNCaP-AR-F876L AG pEC50 (converted); for Emax: read-out: LNCaP-AR-F876L AG MAX % Stim. It counts as cell-based.
Another test has as its system rGABA-gated Cl− channel. In words: GABA-Gated Cl Channel Antagonist Radioligand Binding Assay. The note with it: 10 μM single point, [35S]-TBPS, cerebral cortex membrane homogenates. Set-up: species or system rat. The method, boiled down:
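Rat cerebral cortex membranes (120 μg protein) incubated 120 min at 22° C with 3 nM […] in 50 mM Na2HPO4/KH2PO4 pH 7.4, 500 mM NaCl; nonspecific binding defined with 20 μM picrotoxinin. Bound label counted after filtration; values are percent inhibition of specific binding at 10 μM compound.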

Where [5] appears, read: antagonist mode, pIC50 = −Log10(IC50 in Molar).
Where [6] appears, read: maximum % inhibition of R1881 control response over the tested concentration range.
The mark [7] stands for this setting: maximum % stimulation (agonist response) over the tested concentration range.
Setting [8] is: antagonist mode, maximum % inhibition of R1881 control response over tested concentration range.
Where [9] appears, read: agonist mode, maximum % stimulation over tested concentration range.

T2 sequence (P10275 whole entry F877L): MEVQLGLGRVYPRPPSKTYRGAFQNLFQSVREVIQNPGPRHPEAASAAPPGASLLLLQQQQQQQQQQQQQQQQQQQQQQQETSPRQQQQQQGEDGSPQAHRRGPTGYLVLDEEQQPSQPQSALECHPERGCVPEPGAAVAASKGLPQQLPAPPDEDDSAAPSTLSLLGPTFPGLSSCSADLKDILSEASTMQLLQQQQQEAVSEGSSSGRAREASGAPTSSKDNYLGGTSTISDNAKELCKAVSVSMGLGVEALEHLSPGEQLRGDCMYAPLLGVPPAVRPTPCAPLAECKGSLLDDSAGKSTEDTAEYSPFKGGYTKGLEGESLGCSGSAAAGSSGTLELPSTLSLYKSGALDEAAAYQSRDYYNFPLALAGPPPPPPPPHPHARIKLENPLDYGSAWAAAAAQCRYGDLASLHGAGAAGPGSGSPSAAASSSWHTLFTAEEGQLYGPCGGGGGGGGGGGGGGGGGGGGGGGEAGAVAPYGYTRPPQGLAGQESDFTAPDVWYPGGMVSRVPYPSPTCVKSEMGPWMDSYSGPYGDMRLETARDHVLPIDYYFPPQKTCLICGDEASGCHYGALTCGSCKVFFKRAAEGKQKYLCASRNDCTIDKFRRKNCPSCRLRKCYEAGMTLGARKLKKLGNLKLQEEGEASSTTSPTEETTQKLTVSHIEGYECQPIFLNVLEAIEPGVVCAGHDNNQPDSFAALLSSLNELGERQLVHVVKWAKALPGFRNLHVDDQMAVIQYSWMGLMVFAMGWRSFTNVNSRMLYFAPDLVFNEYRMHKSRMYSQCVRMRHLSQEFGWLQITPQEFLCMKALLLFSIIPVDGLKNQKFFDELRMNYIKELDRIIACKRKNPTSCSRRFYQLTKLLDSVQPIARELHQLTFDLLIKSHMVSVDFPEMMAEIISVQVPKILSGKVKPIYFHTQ
T1 sequence (P10275 whole entry): as the sequence (P10275 whole entry F877L) above, with L877F counted along it

In the case of `CCOC(=O)N1CCN(Cc2ccc(N3C(=S)N(c4cnc(C#N)c(C(F)(F)F)c4)C(=O)C34CCC4)cc2)CC1` [Cpd 55, Ethyl 4-[[4-[6-[6-cyano-5-(trifluoromethyl)-3-pyridyl]-5-oxo-7-thioxo-6,8-diazaspiro[3.4]octan-8-yl]phenyl]methyl]piperazine-1-carboxylate], the IC50 was 72.4 nM in test [1] (setting [5]) and 40.7 nM in test [3] (setting [5]). Moreover, the Emax turned out to be 104% in test [1] (setting [6]), 0.6% in test [2] (setting [7]), 101% in test [3] (setting [6]) and 0.5% in test [4] (setting [7]). Further, the EC50 in test [2] (agonist mode) and in test [4] (agonist mode) was more than 15100 nM in each case. In addition, the “rGABA-gated Cl− channel % inh @10 μM” value with rGABA-gated Cl− channel is given as 100.0%.
As for `N#Cc1ncc(N2C(=O)C3(CCC3)N(c3ccc(C4CNCCO4)cc3)C2=S)cc1C(F)(F)F` (stereo not drawn) [Cpd 243, 5-[8-(4-morpholin-2-ylphenyl)-5-oxo-7-thioxo-6,8-diazaspiro[3.4]octan-6-yl]-3-(trifluoromethyl)pyridine-2-carbonitrile], the Emax in test [1] (setting [8]) came to 101%; in test [2] (setting [9]), 0.2%; in test [3] (setting [8]), 100%; in test [4] (setting [9]), 0.7%. Further, the figures for the IC50 in test [1] (setting [5]) and in test [3] (setting [5]) were 1620 nM and 347 nM, respectively. In addition, the EC50 in test [2] (agonist mode) and in test [4] (agonist mode) was more than 15100 nM each time. Also, the “rGABA-gated Cl− channel % inh @10 μM” value in the test with rGABA-gated Cl− channel was 57.2%.
For the molecule `CCOC(=O)N1CCN(c2ccc(N3C(=S)N(c4cnc(C#N)c(C(F)(F)F)c4)C(=O)C34CCC4)cc2)CC1` [Cpd 58, Ethyl 4-[4-[6-[6-cyano-5-(trifluoromethyl)-3-pyridyl]-5-oxo-7-thioxo-6,8-diazaspiro[3.4]octan-8-yl]phenyl]piperazine-1-carboxylate], the results for the IC50 in test [1] (setting [5]) and in test [3] (setting [5]) were 87.1 nM and 93.3 nM, respectively. In addition, the Emax was 101% in test [1] (setting [6]), 0% in test [2] (setting [7]), 98.1% in test [3] (setting [6]) and 1% in test [4] (setting [7]). Besides, the EC50 in test [2] (agonist mode) and in test [4] (agonist mode) was more than 15100 nM throughout. The “rGABA-gated Cl− channel % inh @10 μM” value in the test on rGABA-gated Cl− channel worked out at 88.1%.
Take `N#Cc1ncc(N2C(=O)C3(CCC3)N(c3ccc(O[C@@H]4CCN[C@H](C(F)(F)F)C4)cc3)C2=S)cc1C(F)(F)F` (racemic) [Cpd 101, 5-[5-oxo-7-thioxo-8-[4-[[(2SR,4RS)-2-(trifluoromethyl)-4-piperidyl]oxy]phenyl]-6,8-diazaspiro[3.4]octan-6-yl]-3-(trifluoromethyl)pyridine-2-carbonitrile]: the values for the IC50 in test [1] (setting [5]) and in test [3] (setting [5]) were 155 nM and 123 nM, respectively. The Emax was 102% in test [1] (setting [6]), 0.3% in test [2] (setting [7]), 98.3% in test [3] (setting [6]) and 0.7% in test [4] (setting [7]). For the same molecule, the EC50 in test [2] (agonist mode) and in test [4] (agonist mode) was more than 15100 nM in each case. In addition, the “rGABA-gated Cl− channel % inh @10 μM” value in the test on rGABA-gated Cl− channel was 83.9%.
On to `COCCN1CCC(Oc2ccc(N3C(=S)N(c4cnc(C#N)c(Cl)c4)C(=O)C34CCC4)cn2)CC1` [Cpd 70, 3-chloro-5-[8-[6-[[1-(2-methoxyethyl)-4-piperidyl]oxy]-3-pyridyl]-5-oxo-7-thioxo-6,8-diazaspiro[3.4]octan-6-yl]pyridine-2-carbonitrile], for which the IC50 was 33.9 nM in test [1] (setting [5]) and 38.9 nM in test [3] (setting [5]). The Emax in test [1] (setting [6]) turned out to be 98.8%; in test [2] (setting [7]) it was 0.8%; in test [3] (setting [6]), 97.1%; in test [4] (setting [7]), 3.6%. The EC50 in test [2] (agonist mode) and in test [4] (agonist mode) was more than 15100 nM in each case. In addition, the “rGABA-gated Cl− channel % inh @10 μM” value with rGABA-gated Cl− channel is reported as 9.2%.
Consider `N#Cc1ncc(N2C(=O)C3(CCC3)N(c3ccc(OCCN4CC5(C4)CC(F)(F)C5)cc3)C2=S)cc1C(F)(F)F` [Cpd 83, 5-[8-[4-[2-(2,2-difluoro-6-azaspiro[3.3]heptan-6-yl)ethoxy]phenyl]-5-oxo-7-thioxo-6,8-diazaspiro[3.4]octan-6-yl]-3-(trifluoromethyl)pyridine-2-carbonitrile], for which the IC50 in test [1] (setting [5]) is 229 nM; in test [3] (setting [5]), 129 nM. The Emax in test [1] (setting [6]) is 102%; in test [2] (setting [7]), -0.2%; in test [3] (setting [6]), 99%; in test [4] (setting [7]), 0.2%. The EC50 in test [2] (agonist mode) and in test [4] (agonist mode) was more than 15100 nM in each case. Moreover, the “rGABA-gated Cl− channel % inh @10 μM” value with rGABA-gated Cl− channel was 20.5%.
With `CN1CC2(CC(Oc3ccc(N4C(=S)N(c5cnc(C#N)c(C(F)(F)F)c5)C(=O)C45CCC5)cc3)C2)C1` [Cpd 97, 5-[8-[4-[(6-methyl-6-azaspiro[3.3]heptan-2-yl)oxy]phenyl]-5-oxo-7-thioxo-6,8-diazaspiro[3.4]octan-6-yl]-3-(trifluoromethyl)pyridine-2-carbonitrile], the figures for the IC50 in test [1] (setting [5]) and in test [3] (setting [5]) were 55 nM and 25.1 nM, respectively. Besides, the Emax in test [1] (setting [6]) was 102%; in test [2] (setting [7]), 0%; in test [3] (setting [6]), 99.9%; in test [4] (setting [7]), 0.2%. The EC50 in test [2] (agonist mode) and in test [4] (agonist mode) was more than 15100 nM in each case. For the same molecule, in the test on rGABA-gated Cl− channel, the “rGABA-gated Cl− channel % inh @10 μM” value was 4.0%.
As to `N#Cc1ncc(N2C(=O)C3(CCC3)N(c3ccc(OC4CC5(CNC5)C4)cc3)C2=S)cc1C(F)(F)F` [Cpd 86, 5-[8-[4-(6-azaspiro[3.3]heptan-2-yloxy)phenyl]-5-oxo-7-thioxo-6,8-diazaspiro[3.4]octan-6-yl]-3-(trifluoromethyl)pyridine-2-carbonitrile], the IC50 in test [1] (setting [5]) is 123 nM; in test [3] (setting [5]), 75.9 nM. In addition, the Emax in test [1] (setting [6]) is 100%; in test [2] (setting [7]), 0%; in test [3] (setting [6]), 99.7%; in test [4] (setting [7]), 0.1%. The EC50 in test [2] (agonist mode) and in test [4] (agonist mode) was more than 15100 nM each time. For the same molecule, in the test with rGABA-gated Cl− channel, the “rGABA-gated Cl− channel % inh @10 μM” value was determined as 15.3%.
As for `N#Cc1ncc(N2C(=O)C3(CCC3)N(c3ccc(OC4CCN(CC(F)(F)F)CC4)nc3)C2=S)cc1C(F)(F)F` [Cpd 66, 5-[5-oxo-7-thioxo-8-[6-[[1-(2,2,2-trifluoroethyl)-4-piperidyl]oxy]-3-pyridyl]-6,8-diazaspiro[3.4]octan-6-yl]-3-(trifluoromethyl)pyridine-2-carbonitrile], the IC50 in test [1] (setting [5]) was 49 nM; in test [3] (setting [5]) it was 45.7 nM. Further, the Emax in test [1] (setting [6]) is 99%; in test [2] (setting [7]), 0.5%; in test [3] (setting [6]), 95.5%; in test [4] (setting [7]), 0.9%. Also, the EC50 in test [2] (agonist mode) and in test [4] (agonist mode) was more than 15100 nM throughout. In the test on rGABA-gated Cl− channel, the “rGABA-gated Cl− channel % inh @10 μM” value was 83.0%.
For `N#Cc1ncc(N2C(=O)C3(CCC3)N(c3ccc(OC4CCN(CCO)CC4)nc3)C2=S)cc1C(F)(F)F` [Cpd 63, 5-[8-[6-[[1-(2-hydroxyethyl)-4-piperidyl]oxy]-3-pyridyl]-5-oxo-7-thioxo-6,8-diazaspiro[3.4]octan-6-yl]-3-(trifluoromethyl)pyridine-2-carbonitrile], the IC50 in test [1] (setting [5]) is 81.3 nM; in test [3] (setting [5]), 69.2 nM. The Emax in test [1] (setting [6]) was 102%; in test [2] (setting [7]) it was 0%; in test [3] (setting [6]) it was 101%; in test [4] (setting [7]) it was 0.1%. Also, the EC50 in test [2] (agonist mode) and in test [4] (agonist mode) was more than 15100 nM throughout. For the same molecule, in the test with rGABA-gated Cl− channel, the “rGABA-gated Cl− channel % inh @10 μM” value was determined as 13.0%.
With `N#Cc1ncc(N2C(=O)C3(CCC3)N(c3ccc(O[C@@H]4CCN[C@@H](C(F)(F)F)C4)cc3)C2=S)cc1C(F)(F)F` (racemic) [Cpd 106, 5-[5-oxo-7-thioxo-8-[4-[[(2RS,4RS)-2-(trifluoromethyl)-4-piperidyl]oxy]phenyl]-6,8-diazaspiro[3.4]octan-6-yl]-3-(trifluoromethyl)pyridine-2-carbonitrile], the IC50 in test [1] (setting [5]) is 174 nM; in test [3] (setting [5]), 219 nM. Moreover, the Emax in test [1] (setting [6]) stood at 102%; in test [2] (setting [7]), 0.1%; in test [3] (setting [6]), 99.7%; in test [4] (setting [7]) it was 0.7%. For the same molecule, the EC50 in test [2] (agonist mode) and in test [4] (agonist mode) was more than 15100 nM throughout. Also, the “rGABA-gated Cl− channel % inh @10 μM” value in the test with rGABA-gated Cl− channel worked out at 87.1%.
In the case of `N#Cc1ncc(N2C(=O)C3(CCC3)N(c3ccc(CN4CCNCC4)cc3)C2=S)cc1C(F)(F)F` [Cpd 48, 5-[5-oxo-8-[4-(piperazin-1-ylmethyl)phenyl]-7-thioxo-6,8-diazaspiro[3.4]octan-6-yl]-3-(trifluoromethyl)pyridine-2-carbonitrile], in test [1] (setting [5]), the “LNCaP-AR-wt ANT pIC50” value is on record as 6.45. Also, the Emax in test [1] (setting [6]) amounted to 102%; in test [2] (setting [7]), 0%; in test [3] (setting [6]), 100%; in test [4] (setting [7]), 0.2%. The EC50 in test [2] (agonist mode) and in test [4] (agonist mode) was more than 15100 nM each time. The “LNCaP-AR-F876L ANT pIC50” value in test [3] (setting [5]) is listed as 6.69. Moreover, the “rGABA-gated Cl− channel % inh @10 μM” value in the test with rGABA-gated Cl− channel is 37.2%.
